According to EPA's ToxValDB 9.5:
“And” between values parts separate entries of the source, which are not always exact repeats. Equal entries are not always repeated.

What was measured:
[1] = test system: Canidae; settings: chronic; duration: 2 years; oral; diet; Dog Other; Central nervous system: Convulsions + Liver: Lesions
[2] = test system: Canidae; settings: chronic; duration: 2 years; oral; diet; F; Beagle; neurological, hepatic
[3] = test system: Canidae; settings: chronic, oral, M/F, Dog Other
[4] = test system: Mus musculus; settings: repeat dose other; oral
[5] = test system: Megascops sp.; settings: oral
[6] = test system: Homo sapiens; settings: clinical, oral
[7] = test system: Rattus norvegicus; settings: chronic; for NOAEL: Liver: Toxicity
[8] = test system: Mus musculus; settings: oral, M
[9] = test system: Rattus norvegicus
[10] = test system: Rattus norvegicus; settings: uterotrophic, Active
[11] = test system: Mus musculus; settings: uterotrophic, injection, Active
[12] = test system: Rattus norvegicus; settings: repeat dose other; oral
[13] = test system: Pelecanus occidentalis; settings: oral
[14] = test system: Homo sapiens; settings: clinical, oral, M/F
[15] = test system: Rattus norvegicus; settings: for NOAEL: M/F
[16] = test system: Homo sapiens; settings: clinical, inhalation, M/F; for LOAEL: neurological
[17] = test system: Rattus norvegicus; settings: oral, gavage
[18] = test system: Mus musculus; settings: subchronic; duration: 13 weeks; oral; gavage; Liver: Lesions
[19] = test system: Mus musculus; settings: subchronic; oral; M/F; hepatic lesions
[20] = test system: Oryctolagus sp.; settings: acute; dermal; New Zealand
[21] = test system: Rattus norvegicus; settings: acute; oral; gavage; Sprague-Dawley
[22] = test system: Oryctolagus sp.; assay: LD0; higher = less toxic; settings: acute; dermal; New Zealand
[23] = test system: Rattus norvegicus; assay: LD0; higher = less toxic; settings: acute; oral; gavage
[24] = test system: Mus musculus; settings: oral, CD1
[25] = test system: Gallus sp.; settings: repeat dose other; oral
[26] = histological lesions in liver, occasional convulsions
[27] = chronic, duration: 27 weeks, oral, diet, M/F, liver lesions
[28] = duration: 2 years, diet, reduced body weight gain, and increased liver and kidney weight
[29] = short-term, duration: 28 days, M, Sprague-Dawley, Functional Observational Battery: No urination (week1) + Body Weight Changes: decrease + Food Consumption: decrease + Urinalysis: Volume …

ClC1=C(Cl)[C@]2(Cl)[C@@H]3[C@H]4C[C@H]([C@@H]5O[C@H]45)[C@@H]3[C@@]1(Cl)C2(Cl)Cl [Endrin]
NOEL [1]: 0.025 mg/kg-day | NOAEL [2]: 0.025 mg/kg-day | LOAEL [3, 26]: 0.05 mg/kg-day | NOEL [3, 26]: 0.025 mg/kg-day | LOAEL [4]: 0.92 mg/kg-day | NOAEL [4]: 0.092 mg/kg-day | LOAEL [5]: 0.1 mg/kg-day | NOAEL [5]: 0.01 mg/kg-day

CCC[C@@H]1C[C@@H](C(=O)N[C@@H]([C@H]2O[C@H](SC)[C@H](O)[C@@H](O)[C@H]2O)[C@@H](C)O)N(C)C1 [Lincomycin]
NOEL ([6]; duration: 12 months, Change in gut flora): 2.5 mg/kg-day

CC[C@@H]1CCN[C@H](C(=O)N[C@@H]([C@H]2O[C@H](SC)[C@H](O)[C@@H](O)[C@H]2O)[C@H](C)Cl)C1 [Pirlimycin]
NOEL ([6]; capsule, M, Clostridium difficile in stool): 50 mg

Clc1ccc(C(c2ccc(Cl)cc2)C(Cl)(Cl)Cl)cc1 [DDT]
NOEL ([7]; duration: 27 weeks, oral, diet, Liver: Lesions): 0.05 mg/kg-day | LOAEL ([8]; developmental, duration: 14 days, gavage, NMRI, developmental): 0.5 mg/kg-day | LOAEL [9, 27]: 0.39 mg/kg-day | NOEL [9, 27]: 0.05 mg/kg-day | LEL ([10]; duration: 1 days, injection, intraperitoneal): 12.5 mg | LEL ([10]; duration: 3 days, injection, intraperitoneal): 4 mg | LEL ([10]; duration: 3 days, oral): 100 mg/kg-day | LEL ([11]; duration: 3 days, intraperitoneal): 100 mg/kg-day | LEL ([11]; duration: 3 days, subcutaneous): 1000 mg/kg-day | LEL ([11]; duration: 5 days, subcutaneous): 10 mg/kg-day | LOAEL [12]: 4 mg/kg-day | NOAEL [12]: 0.8 mg/kg-day | LOAEL [13]: 0.028 mg/kg-day | NOAEL [13]: 0.0028 mg/kg-day

OC(O)C(Cl)(Cl)Cl [Chloral hydrate]
LOAEL ([14]; central nervous system depression and gi irritation in humans): 10.7 mg/kg-day

C1COCCO1 [1,4-Dioxane]
LOAEL ([15]; chronic, duration: 104 weeks, inhalation, whole body, M, Fischer 344, respiratory): 180 mg/m3 | NOAEL ([15]; chronic, duration: 716 days, oral, drinking water, Sherman Wistar, hepatic): 9.6 mg/kg-day | NOAEL ([15]; developmental, duration: 9 days, oral, gavage, Sprague-Dawley, developmental): 516 mg/kg-day | NOAEL ([15]; subchronic, duration: 13 weeks, oral, drinking water, Fischer 344, hepatic): 52 mg/kg-day | NOAEL ([16]; duration: 2 hours, ocular): 72.1 mg/m3 | LOAEL ([9]; chronic, inhalation, M, atrophy and respiratory metaplasia of the olfactory epithelium): 180 mg/m3 | NOAEL ([9]; chronic, oral, M, liver and kidney toxicity): 9.6 mg/kg-day | LOAEL [12]: 1 mg/kg-day | NOAEL [12]: 0.5 mg/kg-day

c1ccoc1 [Furan]
NOEL ([17]; subchronic, duration: 13 weeks, M/F, Fischer 344, Deaths + Body Weight Changes: decrease + Absolute Organ Weight: Right kidney increase, Liver increase, Thymus decrease + Relative Organ …): < 4 mg/kg-day | NOAEL [18]: 1.4 mg/kg-day | LOAEL ([9]; subchronic, oral, M/F, hepatic lesions): 4 mg/kg-day | NOAEL [19]: 2 mg/kg-day

Cc1ccccc1 [1-Methylbenzene]
LOAEL ([15]; acute, duration: 1 days, oral, gavage, M, Long-Evans, neurological): 250 mg/kg-day | NOAEL ([8]; short-term, duration: 28 days, drinking water, CD1, immunological): 22 mg/kg-day | LOAEL ([16]; duration: 20 minutes): 56.5 mg/m3 | LOAEL [4]: 260 mg/kg-day | NOAEL [4]: 26 mg/kg-day

ClCCl [Dichloromethane]
NOAEL ([7]; duration: 2 years, inhalation, intermittent): 695 mg/m3 | NOAEL ([7]; duration: 24 months, oral, drinking water): 5.85 mg/kg-day | NOAEL ([15]; chronic, duration: 2 years, inhalation, Sprague-Dawley, hepatic): 174 mg/m3 | LOAEL ([15]; chronic, duration: 14 weeks, inhalation, unknown, hepatic): 86.8 mg/m3 | NOAEL ([15]; chronic, duration: 104 weeks, oral, drinking water, Fischer-344, hepatic): 6 mg/kg-day | LOAEL ([16]; duration: 1 days, chamber): 1040 mg/m3 | LOAEL [12]: 50 mg/kg-day | NOAEL [12]: 5.85 mg/kg-day

CCCCC(CC)COP(=O)(O)O (configuration not stated) [2-Ethylhexyl dihydrogen phosphate]
LD50 [20]: > 4640 mg/kg | LD50 [21]: 4100 mg/kg and 2710 mg/kg | LD0 [22]: 11300 mg/kg | LD0 [23]: 3640 mg/kg

c1ccc(Nc2ccccc2)cc1 [Diphenylamine]
NOEL ([17]; short-term, duration: 28 days, M/F, Fischer 344, Clinical Observation: Dark brown colored bedding + Body Weight Changes: Weight gain decrease + Food Consumption: decrease + Hematology: RBC …): 111 mg/kg-day | LEL [3, 28]: 25 mg/kg-day | NOEL [3, 28]: 2.5 mg/kg-day | NOAEL ([24]; subchronic, duration: 90 days, diet, M/F): 2.1 mg/kg-day

CNC(=O)O/N=C/C(C)(C)SC [Aldicarb]
LOAEL ([14]; cholinesterase inhibition): 0.025 mg/kg-day | NOAEL ([14]; cholinesterase inhibition): 0.01 mg/kg-day

CN(C)N=O [N-Nitrosodimethylamine]
NOAEL [17, 29]: < 0.8 mg/kg-day | NOEL [17, 29]: < 0.8 mg/kg-day | LOAEL ([24]; developmental, duration: 100 days, drinking water, F, developmental): 0.025 mg/kg-day

[Cl][Al]([Cl])[Cl] [Aluminum chloride]
LOAEL [4]: 19.3 mg/kg-day | NOAEL [4]: 1.93 mg/kg-day | LOAEL [25]: 44.5 mg/kg-day
